Literature values, collected in article PMC7113672 (Antiviral Research, 2014).

Legend:
SARS-CoV = conditions: in vivo
[1] = test system: influenza A/WSN/1933 (H1N1) virus
[2] = test system: other cysteine proteases such as the coronaviral main protease, cathepsins B, K, L, and S, and papain

| Structure (SMILES) | efficacy against SARS-CoV (SARS-CoV) | effect of combination on replication of MERS-CoV (MERS-CoV) | EC50 (MERS-CoV; read-out: EC50, inhibition of MERS-CoV replication) [nM] | selectivity index [1] | EC50 ([1]; read-out: EC50, protective effect against influenza A/WSN/1933 (H1N1) virus) [µM] | inhibition of other cysteine proteases [2] |
| --- | --- | --- | --- | --- | --- | --- |
| COc1c(C)c2c(c(O)c1C/C=C(\C)CCC(=O)O)C(=O)OC2 [Mycophenolic acid] | ineffective | synergistically inhibit | 270 |  |  |  |
| Sc1ncnc2nc[nH]c12 [6MP, 6-Mercaptopurine] |  |  |  | 4 | 26.5 | do not inhibit |
| Nc1nc2nc[nH]c2c(=S)[nH]1 [6TG, 6-Thioguanine] |  |  |  |  |  | do not inhibit |
